Data taken from US9958439B2, “Carbohydrate detection” (RICHTER LIFE SCIENCE DEVELOPMENT AB, priority 2012, dated 2018).
Read-outs that look alike come from different tables or passages of the source.

Experiments:
[1] = for RFU change (Correlation analysis): probe-specific excitation λ, emission 545 nm
Procedure, shortened: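 LCO probes at 3 μM mixed with serial two-fold dilutions of carbohydrate in dH2O (10–0.039 or 5–0.019 mg/ml, depending on carbohydrate), in triplicate. Excitation scanned 300–500 nm or fixed per probe (λmax or lowest background), emission at 545 nm. Detection taken as reproducible λmax/RFU shift vs no-carbohydrate control; RFU regressed linearly on concentration.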

[2] = Procedure, shortened: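 LCO probes (3 μM) were added to serial two-fold dilutions of carbohydrate suspensions in dH2O, with excitation scanned 300–500 nm and emission at 545 nm. Detection was a reproducible λmax and/or RFU change versus no-carbohydrate control. RFU was regressed linearly against concentration at the λmax or the lowest-background excitation.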
[3] = for RFU change (Correlation analysis) / RFU change (Signal deviation with increasing [Carbohydrate]) / λmax change: 3 μM probe; for RFU change (Correlation analysis): probe-specific excitation λ, emission 545 nm; for RFU change (Signal deviation with increasing [Carbohydrate]) / λmax change: spectral analysis, Excitation 300-500, Emission 545; for carbohydrate can be detected and/or differentiated by the LCO: conclusion from change in signal magnitude and/or shift in λmax; for Gradient Parameters (gradient of regression line) / Linear relationship / Quality of Gradient: linear regression
Procedure, shortened: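 Each LCO probe at 3 μM was added to two-fold serial dilutions of carbohydrate in dH2O (10–0.039 mg/ml for β-1,3-glucan, cellulose, chitin; 5–0.019 mg/ml for the others), run in triplicate. Excitation spectra were scanned 300–500 nm with emission at 545 nm. Detection was a reproducible λmax and/or RFU shift versus negative control, with linear regression of RFU against concentration.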

[4] = remark: listed apart in the source
Procedure, shortened: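 3 μM of each LCO probe was added to serial two-fold carbohydrate dilutions in water (10–0.039 or 5–0.019 mg/ml). Excitation spectra were scanned 300–500 nm with emission at 545 nm, in triplicate. Detection was defined as a reproducible shift in λmax and/or RFU versus negative control, with linear regression of RFU against concentration.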

[5] = remark: listed apart in the source
Procedure, shortened: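 LCO probes at 3 μM mixed with serial two-fold carbohydrate dilutions in water (10–0.039 or 5–0.019 mg/ml), run in triplicate. Excitation scanned 300–500 nm with emission at 545 nm; detection based on reproducible λmax or RFU shift against the no-carbohydrate control, with linear regression of RFU on concentration.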

[6] = for RFU change (Correlation analysis): probe-specific excitation λ, emission 545 nm; for Gradient Parameters (gradient of regression line) / Linear relationship / Quality of Gradient: linear regression
Procedure, shortened: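 LCO probes at 3 μM mixed with serial twofold carbohydrate dilutions in dH2O (10–0.039 or 5–0.019 mg/ml, depending on carbohydrate). Excitation scanned 300–500 nm, emission read at 545 nm; detection defined as reproducible shift in λmax and/or RFU relative to negative control, with linear regression of RFU against concentration.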

[7] = Cellulobiose 5-0.019 mg/ml, 3 μM probe, spectral analysis, Excitation 300-500, Emission 545
[8] = amylose concentration vs RFU, linear regression
[9] = cellulobiose concentration vs RFU, linear regression
[10] = sodium alginate concentration vs RFU, linear regression
[11] = β-1,3-glucan concentration vs RFU
[12] = Chondroitin Sulfate A 5-0.019 mg/ml, 3 μM probe, spectral analysis, Excitation 300-500, Emission 545
[13] = Chondroitin Sulfate A concentration vs RFU, linear regression
[14] = glucose concentration vs RFU, linear regression
[15] = Glycogen 5-0.019 mg/ml, 3 μM probe, spectral analysis, Excitation 300-500, Emission 545

Cl.Cl.O=C(Cc1cc(-c2cccs2)sc1-c1ccc(-c2sc(-c3cccs3)cc2CC(=O)NCCc2c[nH]cn2)s1)NCCc1c[nH]cn1 [pHTA-His, penta Hydrogen Thiophene Acetic acid Histidine]
RFU change (Correlation analysis) ([1]; Amylose 5-0.019 mg/ml, 3 μM probe): Decreases | RFU change (Signal deviation with increasing [Carbohydrate]) ([1]; Amylose 5-0.019 mg/ml, 3 μM probe, spectral analysis, Excitation 300-500, Emission 545): Decreases | carbohydrate can be detected and/or differentiated by the LCO ([1]; Amylose, conclusion from change in signal magnitude and/or shift in λmax): can be detected and/or differentiated | RFU change (Correlation analysis) ([1]; Cellulobiose 5-0.019 mg/ml, 3 μM probe): Unclear | RFU change (Signal deviation with increasing [Carbohydrate]) [1, 7]: Unclear | λmax change [1, 7]: No change | Gradient Parameters (gradient of regression line) [1, 8]: −341.5 ± 47.3 | Linear relationship [1, 8]: Significant | Quality of Gradient [1, 8]: Negative | Gradient Parameters (gradient of regression line) [1, 9]: −5.26 ± 4.87 | Quality of Gradient [1, 9]: Horizontal | Sensitivity ([1]; to amylose): Yes | Sensitivity ([1]; to cellulobiose): No | RFU change (Correlation analysis) ([2]; Sodium alginate 5-0.019 mg/ml, 3 μM probe, probe-specific excitation λ, emission 545 nm): Increases | RFU change (Signal deviation with increasing [Carbohydrate]) ([2]; Sodium alginate 5-0.019 mg/ml, 3 μM probe, spectral analysis, Excitation 300-500, Emission 545): Increases | carbohydrate can be detected and/or differentiated by the LCO ([2]; Sodium alginate, conclusion from change in signal magnitude and/or shift in λmax): can be detected and/or differentiated | Gradient Parameters (gradient of regression line) [2, 10]: 199.9 ± 36.3 | Linear relationship [2, 10]: Significant | Quality of Gradient [2, 10]: Positive | Sensitivity ([2]; to sodium alginate): Yes | RFU change (Correlation analysis) ([3]; Cellulose 10-[…]): Increase | RFU change (Signal deviation with increasing [Carbohydrate]) ([3]; Cellulose 10-[…]): Increase | λmax change ([3]; Cellulose 10-[…]): Redshift | carbohydrate can be detected and/or differentiated by the LCO ([3]; Cellulose): can be detected and/or differentiated | RFU change (Correlation analysis) ([3]; Chitin 10-[…]): Increases | RFU change (Signal deviation with increasing [Carbohydrate]) ([3]; Chitin 10-[…]): Increases | λmax change ([3]; Chitin 10-[…]): Redshift | carbohydrate can be detected and/or differentiated by the LCO ([3]; Chitin): can be detected and/or differentiated | Gradient Parameters (gradient of regression line) ([3]; cellulose concentration vs RFU): 725.9 ± 124.6 | Linear relationship ([3]; cellulose concentration vs RFU): Significant | Quality of Gradient ([3]; cellulose concentration vs RFU): Positive | Gradient Parameters (gradient of regression line) ([3]; chitin concentration vs RFU): 117.2 ± 25.7 | Linear relationship ([3]; chitin concentration vs RFU): Significant | Quality of Gradient ([3]; chitin concentration vs RFU): Positive | Sensitivity ([3]; to cellulose): Yes | Sensitivity ([3]; to chitin): Yes | Sensitivity ([3]; to β-1,3-glucan): No | RFU change (Correlation analysis) ([3]; β-1,3-glucan 10-[…]): Unclear | RFU change (Signal deviation with increasing [Carbohydrate]) ([3]; β-1,3-glucan 10-[…]): Unclear | Gradient Parameters (gradient of regression line) [3, 11]: −7.071 ± 34 | Quality of Gradient [3, 11]: Horizontal | RFU change (Correlation analysis) ([4]; Chondroitin Sulfate A 5-0.019 mg/ml, 3 μM probe, probe-specific excitation λ, emission 545 nm): Increases | RFU change (Signal deviation with increasing [Carbohydrate]) [4, 12]: Increases | λmax change [4, 12]: Blueshift | Gradient Parameters (gradient of regression line) [4, 13]: 163.8 ± 20.77 | Linear relationship [4, 13]: Significant | Quality of Gradient [4, 13]: Positive | carbohydrate can be detected and/or differentiated by the LCO ([4]; Chondroitin sulfate A, conclusion from change in signal magnitude and/or shift in λmax): can be detected and/or differentiated | Sensitivity ([4]; to Chondroitin Sulfate A): Yes | RFU change (Correlation analysis) ([5]; Glucose 5-0.019 mg/ml, 3 μM probe, probe-specific excitation λ, emission 545 nm): Unclear | RFU change (Signal deviation with increasing [Carbohydrate]) ([5]; Glucose 5-0.019 mg/ml, 3 μM probe, spectral analysis, Excitation 300-500, Emission 545): Increases | Gradient Parameters (gradient of regression line) [5, 14]: 33.2 ± 25.2 | Quality of Gradient [5, 14]: Horizontal | Sensitivity ([5]; to glucose): No | RFU change (Correlation analysis) ([6]; Glycogen 5-0.019 mg/ml, 3 μM probe): Increases | RFU change (Signal deviation with increasing [Carbohydrate]) [6, 15]: Increases | λmax change [6, 15]: Redshift | carbohydrate can be detected and/or differentiated by the LCO ([6]; Glycogen, conclusion from change in signal magnitude and/or shift in λmax): can be detected and/or differentiated | RFU change (Correlation analysis) ([6]; Heparin 5-0.019 mg/ml, 3 μM probe): Unclear | RFU change (Signal deviation with increasing [Carbohydrate]) ([6]; Heparin 5-0.019 mg/ml, 3 μM probe, spectral analysis, Excitation 300-500, Emission 545): Decreases | Gradient Parameters (gradient of regression line) ([6]; glycogen concentration vs RFU): 130.6 ± 55.6 | Linear relationship ([6]; glycogen concentration vs RFU): Significant | Quality of Gradient ([6]; glycogen concentration vs RFU): Positive | Gradient Parameters (gradient of regression line) ([6]; heparin concentration vs RFU): 26.3 ± 18.5 | Linear relationship ([6]; heparin concentration vs RFU): Not Significant | Quality of Gradient ([6]; heparin concentration vs RFU): Horizontal | Sensitivity ([6]; to glycogen): Yes | Sensitivity ([6]; to heparin): No
